Laboratory results from patent US20100184699A1, “Peptide Derived From Prostate-Related Protein As Cancer Vaccine Candidate For Prostate Cancer Patient Who Is Positive For Hla-A3 Super-Type Allele Molecule” (priority 2005, published 2010).
Values joined by “and” are separate entries in the source; they are usually repeats but may differ in a detail not shown here. Identical values can stand only once.

Tests used:
[1] = test system: peptide-specific IgG in plasma of prostate cancer patients and healthy donors; assay: Detection of peptide-specific IgG in plasma by ELISA; type: binding, human; conditions: for IgG reactive to peptide in plasma: 1:100-diluted plasma; for frequency of detection of peptide-reactive IgG: plasma of prostate cancer patients, compared within PSA, PAP or PSMA peptides
[2] = test system: C1R-A11, -A31 or -A33 cells pulsed with corresponding peptide; assay: Induction of peptide-specific CTLs from PBMCs (IFN-γ ELISA); type: cell-based, human
[3] = Prostate cancer patient 10, A11
[4] = Prostate cancer patient 12, A11
[5] = Prostate cancer patient 13, A11
[6] = Prostate cancer patient 14, A33
[7] = Prostate cancer patient 17, A33
[8] = Prostate cancer patient 18, A33
[9] = Prostate cancer patient 19, A33
[10] = Prostate cancer patient 20, A33

Row | Sequence | IgG reactive to peptide in plasma ([1]; Healthy donor 9, A11) | IgG reactive to peptide in plasma, Total (positive/tested) ([1]; Healthy donors) | IgG reactive to peptide in plasma ([1]; Prostate cancer patient 4, A31) | IgG reactive to peptide in plasma ([1]; Prostate cancer patient 5, A31) | IgG reactive to peptide in plasma ([1]; Prostate cancer patient 6, A31) | IgG reactive to peptide in plasma ([1]; Prostate cancer patient 8, A11) | IgG reactive to peptide in plasma ([1]; Prostate cancer patient 9, A11) | IgG reactive to peptide in plasma [1, 3] | IgG reactive to peptide in plasma [1, 4] | IgG reactive to peptide in plasma [1, 5] | IgG reactive to peptide in plasma [1, 6] | IgG reactive to peptide in plasma [1, 7] | IgG reactive to peptide in plasma [1, 8] | IgG reactive to peptide in plasma [1, 9] | IgG reactive to peptide in plasma [1, 10] | IgG reactive to peptide in plasma, Total (positive/tested) ([1]; Prostate cancer patients) | frequency of detection of peptide-reactive IgG [1] | Total (positive / tested) [2] | other results
1 | EIASKFSER [PSMA 641-649] | + (IgG reactive to a corresponding peptide was judged to be positive when a difference of the optical density (OD) in a 1:100-diluted plasma was more than 100) | 1/9 | + (IgG reactive to a corresponding peptide was judged to be positive when a difference of the optical density (OD) in a 1:100-diluted plasma was more than 100) | + (IgG reactive to a corresponding peptide was judged to be positive when a difference of the optical density (OD) in a 1:100-diluted plasma was more than 100) | + (IgG reactive to a corresponding peptide was judged to be positive when a difference of the optical density (OD) in a 1:100-diluted plasma was more than 100) | + (IgG reactive to a corresponding peptide was judged to be positive when a difference of the optical density (OD) in a 1:100-diluted plasma was more than 100) | + (IgG reactive to a corresponding peptide was judged to be positive when a difference of the optical density (OD) in a 1:100-diluted plasma was more than 100) | + (IgG reactive to a corresponding peptide was judged to be positive when a difference of the optical density (OD) in a 1:100-diluted plasma was more than 100) | + (IgG reactive to a corresponding peptide was judged to be positive when a difference of the optical density (OD) in a 1:100-diluted plasma was more than 100) | + (IgG reactive to a corresponding peptide was judged to be positive when a difference of the optical density (OD) in a 1:100-diluted plasma was more than 100) | + (IgG reactive to a corresponding peptide was judged to be positive when a difference of the optical density (OD) in a 1:100-diluted plasma was more than 100) | + (IgG reactive to a corresponding peptide was judged to be positive when a difference of the optical density (OD) in a 1:100-diluted plasma was more than 100) | + (IgG reactive to a corresponding peptide was judged to be positive when a difference of the optical density (OD) in a 1:100-diluted plasma was more than 100) | + (IgG reactive to a corresponding peptide was judged to be positive when a difference of the optical density (OD) in a 1:100-diluted plasma was more than 100) | + (IgG reactive to a corresponding peptide was judged to be positive when a difference of the optical density (OD) in a 1:100-diluted plasma was more than 100) | 13/20 | more frequently | 1/13 and 2/9 | 
2 | GTLKKEGWR (PSMA 403-411) [PSMA-derived peptide] | + (IgG reactive to a corresponding peptide was judged to be positive when a difference of the optical density (OD) in a 1:100-diluted plasma was more than 100) | 2/9 | + (IgG reactive to a corresponding peptide was judged to be positive when a difference of the optical density (OD) in a 1:100-diluted plasma was more than 100) | + (IgG reactive to a corresponding peptide was judged to be positive when a difference of the optical density (OD) in a 1:100-diluted plasma was more than 100) | + (IgG reactive to a corresponding peptide was judged to be positive when a difference of the optical density (OD) in a 1:100-diluted plasma was more than 100) | + (IgG reactive to a corresponding peptide was judged to be positive when a difference of the optical density (OD) in a 1:100-diluted plasma was more than 100) | + (IgG reactive to a corresponding peptide was judged to be positive when a difference of the optical density (OD) in a 1:100-diluted plasma was more than 100) | + (IgG reactive to a corresponding peptide was judged to be positive when a difference of the optical density (OD) in a 1:100-diluted plasma was more than 100) | + (IgG reactive to a corresponding peptide was judged to be positive when a difference of the optical density (OD) in a 1:100-diluted plasma was more than 100) | + (IgG reactive to a corresponding peptide was judged to be positive when a difference of the optical density (OD) in a 1:100-diluted plasma was more than 100) | + (IgG reactive to a corresponding peptide was judged to be positive when a difference of the optical density (OD) in a 1:100-diluted plasma was more than 100) | + (IgG reactive to a corresponding peptide was judged to be positive when a difference of the optical density (OD) in a 1:100-diluted plasma was more than 100) | + (IgG reactive to a corresponding peptide was judged to be positive when a difference of the optical density (OD) in a 1:100-diluted plasma was more than 100) | + (IgG reactive to a corresponding peptide was judged to be positive when a difference of the optical density (OD) in a 1:100-diluted plasma was more than 100) | + (IgG reactive to a corresponding peptide was judged to be positive when a difference of the optical density (OD) in a 1:100-diluted plasma was more than 100) | 19/20 | more frequently | 1/13 and 3/9 | IgG reactive to peptide in plasma ([1]; Healthy donor 3, A31): + (IgG reactive to a corresponding peptide was judged to be positive when a difference of the optical density (OD) in a 1:100-diluted plasma was more than 100); IgG reactive to peptide in plasma ([1]; Prostate cancer patient 1, A31): + (IgG reactive to a corresponding peptide was judged to be positive when a difference of the optical density (OD) in a 1:100-diluted plasma was more than 100); IgG reactive to peptide in plasma ([1]; Prostate cancer patient 2, A31): + (IgG reactive to a corresponding peptide was judged to be positive when a difference of the optical density (OD) in a 1:100-diluted plasma was more than 100); IgG reactive to peptide in plasma ([1]; Prostate cancer patient 3, A31): + (IgG reactive to a corresponding peptide was judged to be positive when a difference of the optical density (OD) in a 1:100-diluted plasma was more than 100); IgG reactive to peptide in plasma ([1]; Prostate cancer patient 7, A11): + (IgG reactive to a corresponding peptide was judged to be positive when a difference of the optical density (OD) in a 1:100-diluted plasma was more than 100); IgG reactive to peptide in plasma ([1]; Prostate cancer patient 15, A33): + (IgG reactive to a corresponding peptide was judged to be positive when a difference of the optical density (OD) in a 1:100-diluted plasma was more than 100); IgG reactive to peptide in plasma ([1]; Prostate cancer patient 16, A33): + (IgG reactive to a corresponding peptide was judged to be positive when a difference of the optical density (OD) in a 1:100-diluted plasma was more than 100)
3 | KIVIARYGK (PSMA 199-207) [PSMA-derived peptide] |  | 0/9 |  |  |  |  |  |  |  |  |  |  |  |  | + (IgG reactive to a corresponding peptide was judged to be positive when a difference of the optical density (OD) in a 1:100-diluted plasma was more than 100) | 1/20 | less frequently | 0/13 and 4/9 | 
4 | LFLLFFWLDR (PAP 19-28) [PAP-derived peptide] |  |  |  |  |  |  |  |  |  |  |  |  |  |  |  |  | less frequently | 1/13 and 2/9 | 
